Source: patent US6107316A, “Method for treating protozoal infections” (priority 1998, dated 2000)
In brackets after ≈: the same amount, converted by molar mass. Where two headings read alike, the source gives them in different places.

Columns and labels:
Tetrahymena pyriformis = assay: in vitro growth inhibitory activity against the ciliate Tetrahymena pyriformis; assay type: cell-based, Tetrahymena pyriformis (ATCC strain 30005); settings: read-out: EC50 Tetrahymena pyriformis
Experimental: Compounds were evaluated for in vitro growth inhibitory activity against the ciliate Tetrahymena pyriformis, which was used as an indicator organism for the Apicomplexia since by several criteria the ciliates and Apicomplexa are closely related (Edlind T. D. et al., Mol. Phylogenet. Evol. vol. 5, pp. 359-367, 1996). T. pyriformis (ATCC strain 30005) was grown in 1 ml ATCC medium 357 at 25° C. in 4 ml polyallomer culture tubes without shaking. Compounds were dissolved in dimethylsufoxide (DMSO) and added to the cultures (containing 3,000 cells/ml) such that the final DMSO concentration was 0.1-0.3%. […] Parasitol. vol. 84, pp. 355-370, 1996) and Cryptosporidium parvum (Arrowood et al., FEMS Microbial. Lett., vol. 136, pp. 245-249, 1996) were tested for comparison.

Leishmania major = assay: in vitro growth inhibitory activity against L. major promastigotes; assay type: cell-based
Description: 35, pp. 2198-2202 (1991).

[1] = system: Encephalitozoon (Septata) intestinalis; assay: growth inhibitory activity against E. intestinalis grown on Vero cells (spore count); assay type: cell-based; settings: 336 h, 0.1 μg/ml, spore number after 2 weeks, read-out: Growth (% of control)
Experimental: Compounds 2, 10 and 15 were tested for i,7 vitro growth inhibitory activity against E. intestinalis, grown on African green monkey kidney cells (Vero cells). Vero cells were grown in 25-cm^2 culture flasks at 37° C. in a humidified 5% carbon dioxide incubator. Cultures were maintained in minimal essential medium (Gibco BRL, Gaithersburg, Md., U.S.A.), supplemented with L-glutamine, Earle's salts, 5% heat-inactivated foetal calf serum (Hyclone Labs, Inc., U.S.A.), fungizone (2 μg/ml, Gibco BRL) and gentamicin (50 μg/ml, Gibco BRL). E. intestinalis spores were collected from the supernatant of an infected Vero cell culture and were used to infect normal cells to produce a fresh spore preparation for growth inhibition tests.
Growth inhibition tests were performed in 24-well culture plates. One ml of Vero cells (5×10^4 cells per ml) was placed in each well and the cells incubated for 12-15 hours at 37° C. The supernatant medium was then removed and replaced with 1 ml of medium containing 1.5-2.0×10^4 E. intestinalis spores per ml along with 1 μl of test compound dissolved in dimethylsulfoxide (DMSO) or DMSO alone for the control treatments without test compound. The plates were incubated at 37° C. and the medium was changed every 72 h along with fresh test compound in DMSO or DMSO alone (controls). After 2 weeks the supernatant was transferred from each well to a microcentiifuge tube, then concentrated by centrifugation with resuspension of the resulting E. intestinalis spore pellet in 300-500 μl fresh medium. The spore number in each sample was then determined by counting in a hemocytometer. The results in Table 11 show the effects of the test compounds on the number of spores and are expressed as a percentage of the spore number in the control treatment without test compound.

Giardia lamblia = assay: in vitro growth inhibitory activity against Giardia lamblia; assay type: cell-based; settings: Giardia duodenalis; concentration required to inhibit growth by 50%
Experimental: 35, pp. 2198-2202 (1991). EC50 values for test compounds, expressed in parts per million (ppm), were calculated from dose response curves and are presented in Table 4. As used herein, the terminology "EC50" means the concentration of test compound required to inhibit growth by 50% are compared to a control lacking the test compound. Metronidazole was included as a standard in the tests for comparative purposes.

Entamoeba histolytica = assay: in vitro growth inhibitory activity against E. histolytica; assay type: cell-based
Description: 35, pp. 2198-2202 (1991). Metronidazole was included as a standard in the test for comparative purposes.

Toxoplasma gondii [2] = settings: Stokkermans et al., 1996; cited from earlier work
Cryptosporidium parvum [3] = settings: Arrowood et al., 1996; cited from earlier work
Toxoplasma gondii [4] = assay: growth inhibition of T. gondii in L929 host cells ([3H]-uracil incorporation); assay type: cell-based; settings: L929 host cells; for inhibition at 5 µg/mL: Toxoplasma gondii, read-out: % Inhibition
Experimental: (§1) Compounds were tested for it vitro growth inhibitory activity against Toxoplasma gondii replication in L929 (L929-ATCC CCL 1, mouse connective tissue) or HFF (human foreskin fibroblast) host cells using the [^3 H]-uracil incorporation technique as follows. Host cells were grown in 96-well flat-bottom microtiter plates at 37° C in a 5% carbon dioxide environment in modified Eagle's medium containing penicillin, streptomycin and 10% fetal equine serum. Wells containing a homogeneous confluent monolayer of host cells were infected with T. gondii tachyzoites at a ratio of 3 parasites per cell (approximately 6×10^4 tachyzoites per well containing 100 μl of medium). […] Two hours post infection, the cultures were washed to remove free parasites and the various dilutions of test compound were added. Cells were subsequently collected at 24, 48 and 72 hours. Four hours prior to each harvesting 50 Al of [^3 H]-uracil (1 μCi) was added. Cells were collected using a cell harvester and incorporated radioactivity was measured using a scintillation counter. […]

Cryptosporidium parvum [5] = assay: growth inhibitory activity against C. parvum in host MDBKF5D2 cells (immunofluorescence); assay type: cell-based
Experimental: (§2) Compounds were tested for in vitro growth inhibitory activity against C. parvum grown in host MDBKF5D2 cells and for toxicity towards the host cells as follows. […] To test for toxicity towards the host cells, the media containing test compound (200 μl) were introduced into two wells of a 96 well microtiter plate containing confluent MDBKF5D2 cell monolayers and two wells without monolayers, and incubated at 37° C. in an 8% carbon dioxide environment. After 48 hours, the tetrazolium salt MTS (Owen's solution) and phenazine methosulfate were added to each well at concentrations of 333 μg/ml and 25 μM, respectively. The plate was returned to the incubator in the dark to develop for 2 hours, then 100 μl of each supernatant was transferred to a new microtiter plate and read spectrophotometrically in a plate reader at a wavelength of 490 nm. Percent toxicity was calculated by subtracting the mean optical density (OD) of the drug supernatants from the OD of medium control supernatants (no drug), dividing by the OD of the medium control, and multiplying by 100. To test for growth inhibitory activity against C. parvum, 3×10^4 oocysts per well were incubated in mentioned concentrations of each drug at 37° C. (8% CO2) on confluent MDBKF5D2 cell monolayers in 96 well microtiter plates. After 48 hours, the level of infection in each well was determined by means of an immunofluorescence assay. Percent inhibition of growth was calculated by subtracting the mean parasite count in the wells containing test compound from the mean parasite count in the medium control wells (no test compound), dividing by the mean parasite count in the medium control wells, and multiplying by 100. Paromomycin was included in the test as a standard.

[6] = cytotoxicity towards HFF host cells (Cell Titer 96); settings: human, % Inhibition of host cell growth (values in parenthesis)
Experimental: (§3) Cytotoxicity of the test compounds towards host cells was determined using the Cell Titer 96™ it (Promega Corporation, Madison, Wis.) as follows. Cells were seeded at a concentration of 5×10^3 cells per well containing 100 μl of medium in 96-well flat-bottom microtiter plates and incubated at 37° C. in a 5% carbon dioxide environment for 4 hours. Dilutions of the test compounds prepared as described above were then added, and incubation continued for 24, 48 or 72 hours. Four hours before each of these time points the growth medium containing test compound was replaced with 100 μl of fresh medium followed by addition of 16 μl of the kit dye solution. After incubation at 37° C. for another 4 hours, 100 μl of the kit solubilization/stop solution was added to each well, the contents of the wells were mixed and the plates kept 1 hour at room temperature. The plates were then read spectrophotometrically in a plate reader at a wavelength of 570 nm. […] Atovaquone was included in the test as a standard.

[7] = cytotoxicity towards L929 host cells (Cell Titer 96); settings: mouse, % Inhibition of host cell growth (values in parenthesis)
Experimental: as §3

Toxoplasma gondii [8] = assay: growth inhibition of T. gondii in HFF host cells ([3H]-uracil incorporation); assay type: cell-based; settings: HFF host cells; for inhibition at 5 µg/mL: 5.0 μg/ml
Experimental: as §1

MDBKF5D2 cells = assay: toxicity towards MDBKF5D2 host cells (MTS); settings: 48 hours, 2880 min
Experimental: as §2

[9] = toxicity towards MDBKF5D2 host cells (MTS); settings: bovine, mdbkf5d2 cells, Cytotoxicity (percent toxicity), 100 μM
Experimental: as §2

## CCC(C)(NC(=O)c1cc(Cl)cc(C=NOC)c1)C(=O)CCl (stereo not drawn) [Compound 2]
Tetrahymena pyriformis; 24 hours, 25° C.
  EC50: < 0.01 µg/mL
Leishmania major
  EC50: 0.03 µg/mL (≈ 0.0869 µM)
[1]
  activity at 0.1 µg/mL: 29%
Giardia lamblia
  EC50: 0.03 µg/mL (≈ 0.0869 µM)
Entamoeba histolytica
  EC50: 12 µg/mL (≈ 34.8 µM)

## Cc1ncc([N+](=O)[O-])n1CCO [Metronidazole, reference compound]
Giardia lamblia
  EC50: 0.7 µg/mL (≈ 4.09 µM)
Entamoeba histolytica
  EC50: 0.5 µg/mL (≈ 2.92 µM)

## CCC(C)(NC(=O)c1cc(C)cc(Br)c1)C(=O)CCl (stereo not drawn) [Compound 3]
Tetrahymena pyriformis; 24 hours, 25° C.
  EC50: < 0.01 µg/mL
Leishmania major
  EC50: 0.2 µg/mL (≈ 0.577 µM)
Giardia lamblia
  EC50: 0.06 µg/mL (≈ 0.173 µM)
Entamoeba histolytica
  EC50: 16 µg/mL (≈ 46.2 µM)

## CCC(CC)Nc1c([N+](=O)[O-])cc(C)c(C)c1[N+](=O)[O-] [pendimethalin]
Tetrahymena pyriformis; 24 h
  EC50: 2 µg/mL (≈ 7.11 µM)
Toxoplasma gondii [2]
  in vitro activity against Toxoplasma gondii: have in vitro activity
Cryptosporidium parvum [3]
  in vitro activity against Cryptosporidium parvum: have in vitro activity

## CCC(C)(NC(=O)c1cc(Cl)cc(Cl)c1)C(=O)CCl (stereo not drawn) [Compound 5]
Toxoplasma gondii [4]; 0.5 μg/ml, 24 hours
  % Inhibition: 39.2%
Toxoplasma gondii [4]; 0.5 μg/ml, 48 hours
  % Inhibition: 64.7%
Toxoplasma gondii [4]; 0.5 μg/ml, 72 hours
  % Inhibition: 44.1%
Toxoplasma gondii [4]; 5.0 μg/ml, 24 hours
  % Inhibition: 3.3%
Toxoplasma gondii [4]; L929, 48 h, 5.0 μg/ml, 48 hours
  inhibition at 5 µg/mL: 69.2%
Toxoplasma gondii [4]; L929, 72 h, 5.0 μg/ml, 72 hours
  inhibition at 5 µg/mL: 84%
Tetrahymena pyriformis; 24 hours, 25° C.
  EC50: 0.003 µg/mL (≈ 0.0093 µM)
Cryptosporidium parvum [5]; 10 μM, 48 hours
  % Inhibition: 34.1%
Cryptosporidium parvum [5]; Cryptosporidium parvum, 48 h, 0.1 μM
  inhibition at 0.1 µM: 10%
Cryptosporidium parvum [5]; Cryptosporidium parvum, 48 h, 1.0 μM
  inhibition at 1 µM: 17.4%
[6]; 0.5 μg/ml, 48 hours
  inhibition at 48 h: 5.3%
[6]; 5.0 μg/ml, 24 hours
  inhibition at 24 h: 8%
[6]; 5.0 μg/ml, 72 hours
  inhibition at 72 h: 39.6%
Leishmania major
  EC50: 0.06 µg/mL (≈ 0.186 µM)
Giardia lamblia
  EC50: 0.02 µg/mL (≈ 0.062 µM)
[7]; L929, 0.5 μg/ml
  inhibition at 48 h: 0%
  inhibition at 72 h: 0%
[7]; L929, 5.0 μg/ml
  inhibition at 48 h: 66.8%
  inhibition at 72 h: 91.2%
Toxoplasma gondii [8]; 0.5 μg/ml, 48 hours
  % Inhibition: 97.6%
Toxoplasma gondii [8]; 0.5 μg/ml, 72 hours
  % Inhibition: 80.2%
Toxoplasma gondii [8]; Toxoplasma gondii, 24 h, 0.5 μg/ml, 24 hours, read-out: % Inhibition
  inhibition at 0.5 µg/mL: 55.9%
Toxoplasma gondii [8]; Toxoplasma gondii, 24 h, 24 hours, read-out: % Inhibition
  inhibition at 5 µg/mL: 89%
Toxoplasma gondii [8]; Toxoplasma gondii, 48 h, 48 hours, read-out: % Inhibition
  inhibition at 5 µg/mL: 100%
Toxoplasma gondii [8]; Toxoplasma gondii, 72 h, 72 hours, read-out: % Inhibition
  inhibition at 5 µg/mL: 99.6%
MDBKF5D2 cells; 0.1 μM
  Cytotoxicity (percent toxicity): 18.8%
MDBKF5D2 cells; 1.0 μM
  Cytotoxicity (percent toxicity): 6.7%
MDBKF5D2 cells; 10 μM
  Cytotoxicity (percent toxicity): 31.4%
[9]
  cytotoxicity at 48 h, 100 µM: 72.6%

## CCCN(CCC)c1c([N+](=O)[O-])cc(C(F)(F)F)cc1[N+](=O)[O-] [trifluralin]
Tetrahymena pyriformis; 24 hours, 25° C.
  EC50: > 6 µg/mL
Toxoplasma gondii [2]
  in vitro activity against Toxoplasma gondii: have in vitro activity
Cryptosporidium parvum [3]
  in vitro activity against Cryptosporidium parvum: have in vitro activity

## CCC(C)(NC(=O)c1cncc(Br)c1)C(=O)CCl (stereo not drawn) [Compound 15]
Tetrahymena pyriformis; 24 hours, 25° C.
  EC50: < 0.01 µg/mL
Leishmania major
  EC50: 0.7 µg/mL (≈ 2.1 µM)
[1]
  activity at 0.1 µg/mL: 13%
Giardia lamblia
  EC50: 0.2 µg/mL (≈ 0.599 µM)
Entamoeba histolytica
  EC50: 20 µg/mL (≈ 59.9 µM)
